Assays:
[1] = test system: L. mexicana ∆lpg2 promastigotes (lacking LPG and PPG); experiment: alamarBlue viability assay, ∆lpg2 mutant promastigotes; assay type: cell-based, Leishmania mexicana; conditions: for ED50 L. mexicana ∆lpg2: ∆lpg2 mutant promastigotes, alamarBlue viability vs DMSO control, 2–100 µM peptide, 1 h preincubation serum-free at 26 °C, then 24 h, mean (range) of at least 3 independent experiments in triplicate
Method: (§1) Figure 2 Activity of the temporin peptides against ∆lpg1 and ∆lpg2 promastigote L. mexicana. Using the alamarBlue® assay system, L. mexicana ∆lpg1 (A) and ∆lpg2 (B) mutant promastigote viability in the presence of various concentrations (2–100 µM) of the temporin peptides was determined with respect to a DMSO control. Amphotericin B (2–100 µM) was utilized as a positive control. Data points represent the mean of 3 independent experiments performed in triplicate. Standard deviation indicated. Cell viability <50% indicated by red bars.
Proteophosphogylcans (PPGs) are a large range of secreted and cell surface associated parasite glycoconjugates which, like LPG, carry a negative charge. Both axenic and intramacrophage L. mexicana amastigotes lack cell surface associated PPG, although the intracellular parasites do secrete a form of PPG known as aPPG [26, 27]. Targeted deletion of lpg2, a Golgi GDP-Man transporter, to create ∆lpg2 [25] prevented the formation of the phosphoglycan repeats that make up the backbone of LPG and PPG leaving the promastigote surface devoid of these negatively charged macromolecules. […] Like the temporins, amphotericin B is a pore forming compound [28].
(§2) Leishmania mexicana (MNYC/BZ/62/M379) wild type and LPG mutant parasites (∆lpg1 [23] and ∆lpg2 [25]) were maintained at 26 °C in Schneider’s Drosophila media (Sigma Aldrich) supplemented with heat inactivated foetal bovine sera (15% for promastigotes and mutants, and 20% for amastigotes; Biosera). Promastigotes were transformed into axenic amastigotes by a pH and temperature shift as previously described. Cells were counted using a Neubauer Improved Haemocytometer. Cytotoxicity analyses were performed in 96-well plates (Costar, Corning Inc., Amsterdam, The Netherlands) using alamarBlue® (Life Technologies, Paisley, UK) with some modifications to the published, optimized protocol. Briefly, to mitigate against the effects of serum on the efficacy of the peptides, promastigote and amastigote L. mexicana were preincubated (26 °C for promatastigotes; 33 °C for amastigotes) with the temporins (2–100 µM) in 10 µL of serum-free media at 4 × 10^6 mL^−1 for 1 h before the addition of 90 µL of complete media. Following incubation at the appropriate temperature for 24 h, 10 µL of alamarBlue® was added to each well and the plates incubated for a further 4 h prior to assessing cell viability using a fluorescent plate reader (Biotek UK, Potton, UK; 560EX nm/600EM nm). All data points were in triplicate, with amphotericin B as positive and DMSO as negative controls. All of the experiments described above were carried out on a minimum of three separate occasions to ensure a robust data set was collected.

[2] = test system: L. mexicana promastigote (wild type); experiment: alamarBlue viability assay, wild type promastigotes; assay type: cell-based, Leishmania mexicana (MNYC/BZ/62/M379); conditions: alamarBlue viability vs DMSO control, 2–100 µM peptide, 1 h preincubation in serum-free media at 26 °C, then complete media 24 h, alamarBlue 4 h, fluorescence, mean (range) of at least 3 independent experiments in triplicate
Method: as §1, with “Figure 1” for “Figure 2”, “against wild type promastigote” for “against ∆lpg1”, “and amastigote” for “and ∆lpg2 promastigote”, “mexicana promastigote” for “mexicana ∆lpg1”, “and amastigote” for “and ∆lpg2”, “(B)” for “(B) mutant promastigote”
as §2

L. mexicana amastigote = experiment: alamarBlue viability assay, axenic amastigotes; assay type: cell-based, Leishmania mexicana (MNYC/BZ/62/M379); conditions: for ED50 L. mexicana Amastigote: alamarBlue viability vs DMSO control, 2–100 µM peptide, 1 h preincubation in serum-free media at 33 °C, then complete media 24 h, alamarBlue 4 h, fluorescence, mean (range) of at least 3 independent experiments in triplicate
Method: as §1, with “Figure 1” for “Figure 2”, “against wild type promastigote” for “against ∆lpg1”, “and amastigote” for “and ∆lpg2 promastigote”, “mexicana promastigote” for “mexicana ∆lpg1”, “and amastigote” for “and ∆lpg2”, “(B)” for “(B) mutant promastigote”
as §2

[3] = test system: L. mexicana ∆lpg1 promastigotes (lacking LPG); experiment: alamarBlue viability assay, ∆lpg1 mutant promastigotes; assay type: cell-based, Leishmania mexicana; conditions: alamarBlue viability vs DMSO control, 2–100 µM peptide, 1 h preincubation serum-free at 26 °C, then 24 h, mean (range) of at least 3 independent experiments in triplicate
Method: Previously it has been postulated that LPG, which forms a thick negatively charged layer, protects the promatigote parasite from cationic AMPs by capturing them and preventing interaction with the cell surface. […] To test this hypothesis the five temporins were assayed for their activity against L. mexicana promastigotes engineered to lack LPG, ∆lpg1 [23]. […] The results obtained were perhaps surprising, with the temporins showing little or no difference in efficacy against the ∆lpg1 mutant when compared with the wild type L. mexicana promastigotes (Figure 1A and Figure 2A; Table 2). However, it is notable the that efficacy of temporins A and B have previously been reported to be unchanged against a similar, although less defined, L. donovani LPG mutant.
as §1, §2

[4] = test system: L. pifanoi axenic amastigotes; conditions: cited from earlier work
Text: (§3) L. infantum is an Old World species and a member of the L. donovani complex, causing visceral disease in the Mediterranean basin, which has subsequently spread to Latin America where it is sometimes known as L. chagasi. Like L. mexicana, L. pifanoi is a New World species, however it is part of the subgenus Viannia whereas L. mexicana is part of the subgenus Leishmania which actually makes it ...

L. donovani LPG mutant = conditions: similar, less defined LPG mutant; cited from earlier work
Text: Previously it has been postulated that LPG, which forms a thick negatively charged layer, protects the promatigote parasite from cationic AMPs by capturing them and preventing interaction with the cell surface. […] To t ...

[5] = test system: L. infantum axenic amastigotes; conditions: cited from earlier work
Text: as §3

Compound	ED50 L. mexicana Promastiogte [2]	ED50 L. mexicana Amastigote (L. mexicana amastigote)	ED50 L. mexicana ∆lpg1 [3]	ED50 L. mexicana ∆lpg2 [1]	activity against axenic amastigotes of L. pifanoi [4]	efficacy against L. donovani LPG mutant (L. donovani LPG mutant)	other results
C[C@@H]1[C@H](O)[C@@H](C)/C=C/C=C/C=C/C=C/C=C/C=C/C=C/[C@H](O[C@@H]2O[C@H](C)[C@@H](O)[C@H](N)[C@@H]2O)C[C@@H]2O[C@](O)(C[C@@H](O)C[C@@H](O)[C@H](O)CC[C@@H](O)C[C@@H](O)CC(=O)O[C@H]1C)C[C@H](O)[C@H]2C(=O)O [amphotericin B, Amphotericin B, reference compound]							efficacy against ∆lpg2 compared with wild type promastigotes ([1]; positive control, 2–100 µM, alamarBlue, Figure 2B): less effective
FLPLIGRVLSGIL-NH2 [Temporin A, amphibian-derived temporin antimicrobial peptide, […]-NH2]	8 (6–14) µM	~100 µM	11 (8–16) µM	26 (21–39) µM	significant activity	unchanged	ED50 L. mexicana Promastiogte ([2]; listed as temporin A): 8 µM; ED50 L. mexicana Amastigote (L. mexicana amastigote; listed as temporin A): approximately 100 µM; ED50 L. mexicana ∆lpg2 ([1]; listed as temporin A): 26 µM
FLSGIVGMLGKLF-NH2 [Temporin 1Sa, amphibian-derived temporin antimicrobial peptide, […]-NH2]	4 (3–13) µM	42 (35–44) µM	6 (3–18) µM	31 (28–35) µM			ED50 L. mexicana Promastiogte ([2]; listed as temporin 1Sa): 4 µM; ED50 L. mexicana Amastigote (L. mexicana amastigote; listed as 1Sa): 42 µM; ED50 L. mexicana ∆lpg2 ([1]; listed as 1Sa): 31 µM; activity against axenic amastigotes of L. infantum [5]: significant activity
FVQWFSKFLGRIL-NH2 [Temporin L, amphibian-derived temporin antimicrobial peptide, …-NH2]	5 (5–6) µM	83 (46–93) µM	4 (3–6) µM	9 (8–12) µM			ED50 L. mexicana Promastiogte ([2]; listed as L): 5 µM; ED50 L. mexicana Amastigote (L. mexicana amastigote; listed as L): 83 µM; ED50 L. mexicana ∆lpg2 ([1]; listed as L): 9 µM
LLPIVGNLLKSLL-NH2 [Temporin B, amphibian-derived temporin antimicrobial peptide, […]-NH2]	38 (24–64) µM	>100 µM	39 (28–70) µM	41 (40–41) µM	significant activity	unchanged	ED50 L. mexicana Promastiogte ([2]; listed as temporin B): 38 µM; activity against amastigote form at the maximal concentration tested (L. mexicana amastigote; 100 µM, alamarBlue): inactive

Source: article PMC6272152, “The Role of Phosphoglycans in the Susceptibility of Leishmania mexicana to the Temporin Family of Anti-Microbial Peptides” (Molecules, 2015)
